The results in this text go back to ChEMBL document CHEMBL3352506, “Betulin derivatives impair Leishmania braziliensis viability and host-parasite interaction” (Bioorg Med Chem, 2014).

The structures appear in SMILES notation. Calls of active or inactive are those of the source. The calls are words filed in the database; no cut-off is given here. Some results are limits rather than exact numbers.

The subject of data set [1] is Leishmania braziliensis. As to the kind of experiment: Antiparasitic activity against Leishmania braziliensis assessed as inhibition of infection with mouse J774.A1 cells measured infected cells at 1 uM after 4 hrs. Details: scale not given: the % may be the effect or the level left. It counts as functional.
The subject of data set [2] is Leishmania braziliensis. As to the kind of experiment: Antiparasitic activity against Leishmania braziliensis assessed as inhibition of infection with mouse J774.A1 cells measured as >10 parasites per cell at 1 uM after 4 hrs. Details: scale not given: the % may be the effect or the level left. It counts as functional.
Data set [3] deals with Leishmania braziliensis. As to the kind of experiment: Antiparasitic activity against Leishmania braziliensis assessed as inhibition of infection with mouse J774.A1 cells measured as 5 to 10 parasites per cell at 1 uM after 4 hrs. Details: scale not given: the % may be the effect or the level left. The format is functional.
Data set [4] relates to Leishmania braziliensis. In words: Antiparasitic activity against Leishmania braziliensis assessed as inhibition of infection with mouse J774.A1 cells measured as <5 parasites per cell at 1 uM after 4 hrs. It counts as functional. Details: scale not given: the % may be the effect or the level left.
The test system of data set [5] is Leishmania braziliensis. As to the kind of experiment: Antiparasitic activity against Leishmania braziliensis assessed as inhibition of infection with mouse J774.A1 cells measured attached parasites at 1 uM after 4 hrs. The format is functional. Details: scale not given: the % may be the effect or the level left.
For data set [6], the system named is Leishmania braziliensis. In words: Antiparasitic activity against Leishmania braziliensis assessed as inhibition of growth after 72 hrs at 10 uM. The format is functional.
For data set [7], the system named is Leishmania braziliensis. As to the kind of experiment: Antiparasitic activity against Leishmania braziliensis assessed as inhibition of infection with mouse J774.A1 cells measured as >10 parasites per cell at 1 x 10^-9 M after 4 hrs. The format is functional. Details: scale not given: the % may be the effect or the level left.
The test system of data set [8] is Leishmania braziliensis. In words: Antiparasitic activity against Leishmania braziliensis assessed as inhibition of infection with mouse J774.A1 cells measured as <5 parasites per cell at 1 x 10^-8 M after 4 hrs. It counts as functional. The arrangement: scale not given: the % may be the effect or the level left.
In data set [9] the test system is Leishmania braziliensis. In words: Antiparasitic activity against Leishmania braziliensis assessed as inhibition of infection with mouse J774.A1 cells measured as >10 parasites per cell at 1 x 10^-7 M after 4 hrs. It counts as functional. Details: scale not given: the % may be the effect or the level left.
In data set [10] the test system is Leishmania braziliensis. In words: Antiparasitic activity against Leishmania braziliensis assessed as inhibition of infection with mouse J774.A1 cells measured attached parasites at 1 x 10^-9 M after 4 hrs. Details: scale not given: the % may be the effect or the level left. It counts as functional.
Data set [11] relates to Leishmania braziliensis. As to the kind of experiment: Antiparasitic activity against Leishmania braziliensis assessed as inhibition of infection with mouse J774.A1 cells measured attached parasites at 1 x 10^-7 M after 4 hrs. The arrangement: scale not given: the % may be the effect or the level left. It counts as functional.
Data set [12] deals with Leishmania braziliensis. As to the kind of experiment: Antiparasitic activity against Leishmania braziliensis assessed as inhibition of infection with mouse J774.A1 cells measured infected cells […] at 1 x 10^-7 M after 4 hrs. It counts as functional. Details: scale not given: the % may be the effect or the level left.
Data set [13] has as its system Leishmania braziliensis. As to the kind of experiment: Antiparasitic activity against Leishmania braziliensis assessed as inhibition of growth after 72 hrs. It counts as functional, organism-based.
Data set [14] deals with Leishmania braziliensis. In words: Antiparasitic activity against Leishmania braziliensis assessed as inhibition of infection with mouse J774.A1 cells measured as <5 parasites per cell at 1 x 10^-7 M after 4 hrs. The format is functional. Details: scale not given: the % may be the effect or the level left.
Data set [15] has as its system Leishmania braziliensis. In words: Antiparasitic activity against Leishmania braziliensis assessed as inhibition of infection with mouse J774.A1 cells measured as >10 parasites per cell at 1 x 10^-8 M after 4 hrs. It counts as functional. Details: scale not given: the % may be the effect or the level left.
The next data set relates to J774.A1. As to the kind of experiment: Cytotoxicity against mouse J774.A1 cells. The format is cell-based.
For data set [16], the system named is Leishmania braziliensis. As to the kind of experiment: Antiparasitic activity against Leishmania braziliensis assessed as inhibition of infection with mouse J774.A1 cells measured infected cells […] at 1 x 10^-9 M after 4 hrs. The format is functional. The arrangement: scale not given: the % may be the effect or the level left.
In data set [17] the test system is Leishmania braziliensis. As to the kind of experiment: Antiparasitic activity against Leishmania braziliensis assessed as inhibition of infection with mouse J774.A1 cells measured as 5 to 10 parasites per cell at 1 x 10^-7 M after 4 hrs. The format is functional. The arrangement: scale not given: the % may be the effect or the level left.
The subject of data set [18] is Leishmania braziliensis. In words: Antiparasitic activity against Leishmania braziliensis assessed as inhibition of infection with mouse J774.A1 cells measured as 5 to 10 parasites per cell at 1 x 10^-9 M after 4 hrs. It counts as functional. Details: scale not given: the % may be the effect or the level left.
Data set [19] concerns Leishmania braziliensis. In words: Antiparasitic activity against Leishmania braziliensis assessed as inhibition of infection with mouse J774.A1 cells measured as 5 to 10 parasites per cell at 1 x 10^-8 M after 4 hrs. The format is functional. Details: scale not given: the % may be the effect or the level left.
The subject of data set [20] is Leishmania braziliensis. As to the kind of experiment: Antiparasitic activity against Leishmania braziliensis assessed as inhibition of infection with mouse J774.A1 cells measured as <5 parasites per cell at 1 x 10^-9 M after 4 hrs. Details: scale not given: the % may be the effect or the level left. It counts as functional.
The test system of data set [21] is Leishmania braziliensis. In words: Leishmanicidal activity against Leishmania braziliensis assessed as dead cells at 10^-6 M after 30 mins by chemotactic assay. It counts as functional. Particulars: 0.5 h.
Data set [22] deals with Leishmania braziliensis. As to the kind of experiment: Leishmanicidal activity against Leishmania braziliensis assessed as dead cells at 10^-12 to 10^-7 M after 30 mins by chemotactic assay. The format is functional, organism-based.
Data set [23] deals with Leishmania braziliensis. In words: Antiparasitic activity against Leishmania braziliensis assessed as inhibition of infection with mouse J774.A1 cells measured attached parasites at 1 x 10^-8 M after 4 hrs. It counts as functional. Details: scale not given: the % may be the effect or the level left.
Data set [24] in a line: Selectivity index, ratio of IC50 for mouse J774.A1 cells to IC50 for Leishmania braziliensis. It counts as toxicity, cell-based. Particulars: J774.A1 cells versus Leishmania braziliensis, read-out: Ratio IC50.
The test system of data set [25] is Leishmania braziliensis. In words: Antiparasitic activity against Leishmania braziliensis assessed as inhibition of infection with mouse J774.A1 cells measured infected cells […] at 1 x 10^-8 M after 4 hrs. It counts as functional. The arrangement: scale not given: the % may be the effect or the level left.
For data set [26], the system named is Leishmania braziliensis. In words: Leishmanicidal activity against Leishmania braziliensis assessed as reduction in parasite migration at 10^-6 M after 30 mins by chemotactic assay. The format is functional, organism-based.

In the case of `C[C@@H]1[C@H](O)[C@@H](C)/C=C/C=C/C=C/C=C/C=C/C=C/C=C/[C@H](O[C@@H]2O[C@H](C)[C@@H](O)[C@H](N)[C@@H]2O)C[C@@H]2O[C@](O)(C[C@@H](O)C[C@@H](O)[C@H](O)CC[C@@H](O)C[C@@H](O)CC(=O)O[C@H]1C)C[C@H](O)[C@H]2C(=O)O` [AMPHOTERICIN B], the Activity in the data set with Leishmania braziliensis [1] amounted to 15.2%; in the data set with Leishmania braziliensis [2], 7.15%; in the data set with Leishmania braziliensis [3], 21.45%; with Leishmania braziliensis [4], 71.51%; with Leishmania braziliensis [5], 41.3%.
Take `C=C(C)[C@@H]1CC[C@]2(C(=O)O)CC[C@]3(C)[C@H](CC[C@@H]4[C@@]5(C)CCC(=O)C(C)(C)[C@@H]5CC[C@]43C)[C@@H]12` [BETUNOLIC ACID]: the inhibition (in general, how much of the control response was suppressed) at 10 µM in the data set on Leishmania braziliensis [6] amounted to 50%.
Same read-out and setting: as for `CC(=O)OC[C@]12CC[C@]3(C(C)C)C1=C1C(C[C@@H]4[C@@]5(C)CC[C@H](OC(C)=O)C(C)(C)[C@@H]5CC[C@@]4(C)[C@]1(C)CC2)n1c(=O)n(C)c(=O)n13` (some centres undefined), the figure is 50%.
Regarding `CC(C)[C@@]12CC[C@]3(COC=O)CC[C@]4(C)C(=C31)C(C[C@@H]1[C@@]3(C)CC[C@H](OC=O)C(C)(C)[C@@H]3CC[C@]14C)n1c(=O)n(C)c(=O)n12` (some centres undefined), the Activity with Leishmania braziliensis [7] is listed as 6.34%; in the data set with Leishmania braziliensis [8], 59.79%; in the data set with Leishmania braziliensis [9], 3.86%; with Leishmania braziliensis [10], 55%; in the data set on Leishmania braziliensis [11], 59%; in the data set on Leishmania braziliensis [12] it was 17.7%. For the same compound, the Activity in the data set on Leishmania braziliensis [14] was determined as 61.91%; in the data set on Leishmania braziliensis [15] it was 4.78%; in the data set with Leishmania braziliensis [16], 10.3%; with Leishmania braziliensis [17], 25.15%; in the data set with Leishmania braziliensis [18], 15.86%; in the data set with Leishmania braziliensis [19], 31.09%. Also, the Activity in the data set with Leishmania braziliensis [20] is 76.14%; with Leishmania braziliensis [22] it was “Dose-dependent effect”; with Leishmania braziliensis [23], 46.6%; with Leishmania braziliensis [25] it was 13.4%. The IC50 (usually the point on the concentration scale where inhibition reaches its midpoint) was 0.25 µM in the data set with Leishmania braziliensis [13] and above 10 µM with J774.A1. Moreover, the inhibition at 1 µM in the data set with Leishmania braziliensis [21] was 25%. The selectivity ratio in [24] was above 40.
In the case of `C=C(C)[C@@H]1CC[C@]2(/C=N/O)CC[C@]3(C)[C@H](CC[C@@H]4[C@@]5(C)CC/C(=N\O)C(C)(C)[C@@H]5CC[C@]43C)[C@@H]12` [BETULIN-3,28-DIOXIME], the IC50 with Leishmania braziliensis [13] is 3.35 µM; in the data set on J774.A1, above 10 µM. Further, the inhibition at 1 µM in the data set with Leishmania braziliensis [21] was 25%. Besides, in the data set on Leishmania braziliensis [22], the Activity entry is “Dose-dependent effect”. Further, the inhibition at 10 µM with Leishmania braziliensis [6] came to 50%. The selectivity ratio in data set [24] was above 3.
For `C=C(C)[C@@H]1CC[C@]2(/C=N/O)CC[C@]3(C)[C@H](CC[C@@H]4[C@@]5(C)CC[C@H](O)C(C)(C)[C@@H]5CC[C@]43C)[C@@H]12`, the IC50 in the data set with Leishmania braziliensis [13] is 4.12 µM; with J774.A1 it was above 10 µM. The inhibition at 1 µM in the data set on Leishmania braziliensis [21] is 66%. Also, the inhibition at 10 µM in the data set with Leishmania braziliensis [6] stood at 50%. The outcome in the data set on Leishmania braziliensis [26] was Active. In addition, the selectivity ratio in [24] is above 2.5.
As for `CC(C)[C@@]12CC[C@]3(C=O)CC[C@]4(C)C(=C31)C(C[C@@H]1[C@@]3(C)CC[C@H](O)C(C)(C)[C@@H]3CC[C@]14C)n1c(=O)n(C)c(=O)n12` (some centres undefined), the Activity in the data set with Leishmania braziliensis [7] amounted to 6.83%; with Leishmania braziliensis [8], 90.02%; in the data set on Leishmania braziliensis [9], 5.09%; with Leishmania braziliensis [10], 50%; in the data set with Leishmania braziliensis [11], 62.3%; with Leishmania braziliensis [12], 12.7%. For the same compound, the Activity in the data set on Leishmania braziliensis [14] is 84.09%; in the data set on Leishmania braziliensis [15], 7.29%; with Leishmania braziliensis [16], 14.4%; in the data set on Leishmania braziliensis [17], 5.09%; with Leishmania braziliensis [18], 15.93%; with Leishmania braziliensis [19], 9.73%. The Activity is recorded as 77.41% with Leishmania braziliensis [20], 56.7% with Leishmania braziliensis [23] and 13.7% in the data set on Leishmania braziliensis [25]. The IC50 in the data set with Leishmania braziliensis [13] was 2.06 µM; in the data set with J774.A1, above 10 µM. Besides, the inhibition at 1 µM in the data set on Leishmania braziliensis [21] stood at 25%. Also, in the data set with Leishmania braziliensis [26], the outcome was Active. Further, in [24], the selectivity ratio was above 5.
